For the test, the target named is SARS-CoV-2 Main Protease (SARS-CoV-2) (UniProt P0DTD1).
Experimental: Briefly, compounds were seeded into assay-ready plates (Greiner 384PP, cat# 781280) using an ECHO 650T dispenser and DMSO was back-filled for a uniform concentration in assay plates (DMSO concentration < 1%, final volume = 500 nL.). […] After a quick centrifugation step (1000 rpm, 15 s) the plate is incubated for 15 min at room temperature. […] After centrifugation (1000 rpm, 14 s) the reaction is incubated for 10 min (11-mer) or 5 min (37-mer) at room temperature before quenching with 10 % formic acid. The reactions are analysed with MS using RapidFire (RF) 365 high-throughput sampling robot (Agilent) connected to an iFunnel Agilent 6550 accurate mass quadrupole time-of-flight (Q-TOF) mass spectrometer using electrospray. […] Dose response curves uses an 11-point range of 100--0.0017 µM inhibitor concentrations. RapidFire integrator software (Agilent) was used to extract the charged states from the total ion chromatogram data followed by peak integration. For the 11-mer peptide the m/z (+1) charge states of both the substrate (1191.67 Da) and cleaved N-terminal product TSAVLQ (617.34 Da) were used and the 37-mer peptide the m/z (+2) charge states of the substrate (3960.94 Da) and m/z (+1) of the cleaved C-terminal product [sequence] (1125.57 Da). Percentage conversion (product peak integral / (product peak integral + substrate peak integral))*100) and percentage inhibitions were calculated and normalised against DMSO control with deduction of any background signal in Microsoft Excel. IC50s were calculated using Levenberg–Marquardt algorithm used to fit a restrained Hill equation to the dose-response data with both GraphPad PRISM and CDD.
For `O=C(Nn1nnc2ccccc21)C(Cc1cccc(Cl)c1)c1ccc(N2CCCCC2=O)cc1` (centres undefined), the IC50 turned out to be 81.8 µM. In other words, the double-digit micromolar range.

Molecule `C[C@@H]1C[C@H](C(=O)Nc2cncc3ccccc23)c2cc(Cl)ccc2O1` (stereo in doubt) came in with an IC50 of 2.66 µM.

In the case of `Cc1ccncc1NC(=O)Cc1cc(Cl)cc(NC2CCCC2O)c1` (centres undefined), the 50% inhibitory concentration (IC50) turned out to be 38.9 µM.

In the case of `Cc1ccncc1NC(=O)Cc1cc(Cl)cc(/C=C(/c2ccccc2)C(F)(F)F)c1`, the concentration for half-maximal inhibition (IC50) is 15.3 µM.

`O=C(Cn1nnc2ccccc21)N(Cc1cccc(Cl)c1)c1ccc(N2CCCCC2)cc1` gave an IC50 of 6.02 µM. This IC50 is about 2.5-fold lower than that of the molecule before.

`O=C(Nc1cncc2ccccc12)[C@H]1COc2ccc(Cl)cc2C1` (stereo in doubt) registered a 50% inhibitory concentration (IC50) of 37.7 µM. Compared with the last molecule, the IC50 is about 6.3-fold higher.

`O=C(Nc1cc(=O)[nH]c2ccccc12)C1CCOc2ccc(Cl)cc21` (centres undefined): the IC50 was 48 µM.

Regarding `O=C(Cn1nnc2ccccc21)N(Cc1ccsc1)c1ccc(N2CCOCC2)cc1`, the 50% inhibitory concentration (IC50) worked out at 21.3 µM. Against the preceding molecule, the IC50 is about 2.3-fold lower.

The molecule `O=C(Nc1cncc2ccccc12)C1CCCc2ccc(Cl)cc21` (centres undefined) yielded a half-inhibitory concentration (IC50) of 0.289 µM.

On to `CCN(c1ccccc1)S(=O)(=O)c1ccc(OC)c(NC(=O)CCl)c1`, for which the IC50 amounted to 6.96 µM.

Take `Cc1ccncc1NC(=O)Cc1cc(Cl)cc(OCc2nnc(C3CCCCC3)o2)c1`: the IC50 was found to be 13.3 µM. Against the preceding molecule, the IC50 is about 1.9-fold higher.

`O=C(Cc1cccc(Cl)c1)Nc1cnccc1C1CC1` displayed a half-inhibitory concentration (IC50) of 7.4 µM.

`CC(C)(C)N1C=CN(C(C)(C)C)[CH]1[Au][Cl]` displayed an IC50 of 0.117 µM.

Take `CNC(=O)Nc1ccc(N(Cc2ccsc2)C(=O)Cn2nnc3ccccc32)cc1`: the IC50 came to 15.3 µM. This IC50 lies about 130-fold higher than the previous one.

As for `CNc1ccc(N(C(=O)Cn2nnc3ccccc32)c2cccc(Cl)c2)cc1`, the concentration for half-maximal inhibition (IC50) stood at 10.6 µM.

`Cc1ccn2cnnc2c1NC(=O)Cc1cccc(Cl)c1` returned an IC50 of 83.4 µM. This IC50 lies about 7.9-fold higher than the previous one.

`Cc1ccc(NC2=C(c3ccccc3)C(=O)N(Cc3cccnc3)C2=O)cc1Cl`: the IC50 is 32.2 µM.

The molecule `Cc1ccncc1NC(=O)Cc1cc(Cl)cc(-c2ccc(C3(C)CCO3)cc2)c1` (centres undefined) came in with a half-maximal inhibitory concentration (IC50) of 15.3 µM.

Molecule `O=C(c1cc(=O)[nH]c2ccccc12)N1CCN(c2cccc(Cl)c2)C(=O)C1` came in with an IC50 of 9.61 µM. Against the preceding molecule, the IC50 is about 1.6-fold lower.

`O=C(NCC1=[SH]C=CC1)[C@@H](c1ccccc1)N1Cc2ccccc2C1=O` (stereo in doubt) returned a concentration for half-maximal inhibition (IC50) of 82 µM.

With `Cc1ccc(N(Cc2cccc(Cl)c2)C(=O)Cn2nnc3ccccc32)cc1`, the IC50 was 3.3 µM.

The molecule `Nc1nn(C(=O)C2CCOc3ccc(Cl)cc32)c2ccncc12` (centres undefined) came in with an IC50 of 95.2 µM.

Regarding `Cc1ccncc1N1CCC(c2cccc(Cl)c2)S1(=O)=O` (centres undefined), the IC50 amounted to 68.2 µM.

Consider `C[C@H]1C[C@@H](C(=O)Nc2cncc3ccccc23)c2cc(Cl)ccc2O1` (stereo in doubt), for which the IC50 was 45.4 µM.

In the case of `O=C(Cc1cncc2ccccc12)N1CCOc2ccc(Cl)cc21`, the IC50 stood at 3.66 µM.

In turn, `Cc1ccncc1NC(=O)Cc1cc(Cl)cc(C2COC2)c1` displayed an IC50 of 56.9 µM.

Take `O=C(Cn1nnc2ccccc21)N(Cc1ccccc1)c1ccc(N2CCOCC2)cc1`: the half-maximal inhibitory concentration (IC50) worked out at 18.2 µM.

Regarding `O=C(Nc1ccccc1)[C@@H](c1ccccc1)N1Cc2ccccc2C1=O` (stereo in doubt), the IC50 stood at 99.8 µM.

As to `COc1ccc(Cl)cc1OCCNC(=O)c1cc(=O)[nH]c2ccccc12`, the half-inhibitory concentration (IC50) worked out at 0.692 µM.

Molecule `O=C(Nc1cncc2ccccc12)[C@@H]1COc2ccc(Cl)cc2C1` (stereo in doubt) displayed a concentration for half-maximal inhibition (IC50) of 3.56 µM.

As to `CN(C)c1ccc(N(Cc2ccn[nH]2)C(=O)Cn2nnc3ccccc32)cc1`, the IC50 turned out to be 90.8 µM.

Take `O=C1OC(c2cccs2)=N/C1=C\c1ccc(N2CCOCC2)s1`: the IC50 stood at 0.706 µM.

In the case of `Cc1ccncc1NC(=O)Cc1cc(Cl)cc(OCc2ncn[nH]2)c1`, the concentration for half-maximal inhibition (IC50) was found to be 81 µM.

Regarding `COc1ccc(N(Cc2cccc(Cl)c2)C(=O)Cn2nnc3ccccc32)cc1`, the IC50 amounted to 5.65 µM.

`Cc1cc2c(c(O)c1-c1c(C)cc(O)c3c1C(=O)C=CC3=O)C(=O)C=CC2=O` came in with an IC50 of 8.41 µM. The IC50 values of the last two molecules are within 1.5-fold of each other.

In turn, `COc1cc(Cl)cc2c1OCC[C@@H]2C(=O)Nc1cncc2ccccc12` (stereo in doubt) came in with an IC50 of 10.2 µM.

`Nc1nn(C(=O)Cc2cccc(Cl)c2)c2cccc(F)c12`: the half-maximal inhibitory concentration (IC50) was 52.6 µM.

With `COc1cccc(C2=N/C(=C/c3sccc3C)C(=O)O2)c1`, the half-maximal inhibitory concentration (IC50) worked out at 5.07 µM.

Take `O=C1CC(C(=O)Nc2cncc3ccccc23)c2cc(Br)ccc2N1` (centres undefined): the concentration for half-maximal inhibition (IC50) came to 1.12 µM. Compared with the last molecule, the IC50 is about 4.5-fold lower.

Molecule `CC(C)(C)c1ccc(N(C(=O)c2cnc[nH]2)C(C(=O)NCCc2cccc(F)c2)c2cccnc2)cc1` (centres undefined) yielded an IC50 of 1.05 µM.

Regarding `CCCCOc1ccc(Cl)cc1CC(=O)Nc1cnccc1C`, the IC50 stood at 15.7 µM. Compared with the last molecule, the IC50 is about 15-fold higher.

Molecule `O=C(Nc1cccc(F)c1)[C@@H](c1ccccc1)N1Cc2ccccc2C1=O` (stereo in doubt) displayed a concentration for half-maximal inhibition (IC50) of 59.9 µM. Against the preceding molecule, the IC50 is about 3.8-fold higher.

Consider `Cc1cc(C(F)(F)F)nc2n[nH]c(NC(=O)C3CCOc4ccc(Cl)cc43)c12` (centres undefined), for which the half-inhibitory concentration (IC50) was determined as 98.1 µM.

Regarding `CC(=O)NCc1cc(Cl)cc(CC(=O)Nc2cnccc2C)c1`, the half-inhibitory concentration (IC50) came to 55.5 µM.

Molecule `Cc1cc(C(F)(F)F)nc2c1c(N)nn2C(=O)C1CCOc2ccc(Cl)cc21` (centres undefined) had an IC50 of 57.8 µM.

Regarding `O=C(Cc1cccc(Cl)c1)Nc1cnccc1-c1ccccc1`, the concentration for half-maximal inhibition (IC50) turned out to be 25.1 µM.

With `COc1ccc2c(NC(=O)Cc3cccc(Cl)c3)[nH]nc2c1`, the IC50 worked out at 52 µM.

For `COc1cc(COc2cc(Cl)cc(CC(=O)Nc3cnccc3C)c2)ccc1OC(F)F`, the IC50 is 7.39 µM.

`CN(C)c1ccc(N(Cc2ccccc2)C(=O)Cn2nnc3ccccc32)cc1` yielded an IC50 of 1.57 µM.

The IC50 is the concentration that gives 50% inhibition. A higher IC50 goes with a need for much substance.

Source of the values: the COVID Moonshot data (paper PMC11187573), “Identification of SARS-CoV-2 Mpro inhibitors through deep reinforcement learning for de novo drug design and computational chemistry approaches” (RSC Medicinal Chemistry, 2024).
